Assay results from patent publication US11466003B2, “Nitrogenous heterocyclic aromatic compound, preparation method therefor, pharmaceutical composition thereof, and application thereof” (SHANGHAI YINGLI PHARMACEUTICAL CO., LTD, priority 2016, dated 2022).

Biological target: ALK5 (Homo sapiens (Human), UniProt P36897)
Experiment: Evaluation of IC50 of inhibitory activity toward ALK5 enzyme (ADP-Glo kinase assay)
Format: biochemical
Details: 25 nM ALK5, 0.1 mg/mL peptide TGFbR1, 7 μM ATP, 30° C. 1 hour, ADP-Glo luminescence
Description: 5. […] The value of the luminescence reading was converted to % inhibition by formula (% inhibition=(max−sample RLU)/(max−min)×100, wherein, “min” refers to control fluorescence reading of reaction of no enzyme; “max” refers to the fluorescence reading of the sample with DMSO added as a control. The data was imported into MS Excel and curve fitting was performed using GraphPad Prism. IC50 values was calculated.

ALK5, sequence (P36897 34-503, species assumed): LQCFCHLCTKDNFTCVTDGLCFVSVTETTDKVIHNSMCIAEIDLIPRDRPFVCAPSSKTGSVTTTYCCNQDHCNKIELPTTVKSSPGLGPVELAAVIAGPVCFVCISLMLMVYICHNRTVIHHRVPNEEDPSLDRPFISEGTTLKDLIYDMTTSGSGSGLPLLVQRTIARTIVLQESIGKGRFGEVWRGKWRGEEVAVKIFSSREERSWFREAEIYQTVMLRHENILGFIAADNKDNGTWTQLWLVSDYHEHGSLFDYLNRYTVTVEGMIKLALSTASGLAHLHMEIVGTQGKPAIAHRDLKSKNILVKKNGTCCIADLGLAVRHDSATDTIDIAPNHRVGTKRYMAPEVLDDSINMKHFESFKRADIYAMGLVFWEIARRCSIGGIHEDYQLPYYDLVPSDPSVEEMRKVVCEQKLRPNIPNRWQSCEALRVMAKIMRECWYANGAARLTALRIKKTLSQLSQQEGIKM

| Structure (SMILES) | IC50 |
| --- | --- |
| Cc1cccc(-c2ccccc2-c2ccc3ncnc(N)c3c2)n1 [Compound 13] | 337 nM |
| Cc1cccc(-c2ccccc2-c2ccc3nncn3c2)n1 [Compound 17] | > 10000 nM |
| Cc1cccc(-c2ccccc2-c2ccc3ncc(C#N)n3c2)n1 [Compound 20] | 535 nM |
| Cc1cccc(-c2cccc(F)c2-c2ccc3ncc(C(N)=O)n3c2)n1 [Compound 8] | 45 nM |
| Cc1cccc(-c2ccccc2-c2ccc3ncc(-c4nnn[nH]4)n3c2)n1 [Compound 21] | 72 nM |
| Cc1cccc(-c2ccccc2-c2ccc3ncc(C(N)=O)n3c2)n1 [Compound 2] | 16.5 nM |
| Cc1cccc(-c2ccccc2-c2ccc3ncc(C(=O)N(C)C)n3c2)n1 [Compound 5] | 243 nM |
| NC(=O)c1cnc2ccc(-c3ccccc3-c3ccccn3)cn12 [Compound 7] | 85 nM |
| Cc1cccc(-c2ccccc2-c2ccc3ncc(C(=O)NO)n3c2)n1 [Compound 12] | 45 nM |
| Cc1cccc(-c2ccccc2-c2ccc3ncc(S(N)(=O)=O)n3c2)n1 [Compound 34] | 581 nM |
| Cc1cccc(-c2ccccc2-c2ccc3c(cnn3C(N)=O)c2)n1 [Compound 19] | > 10000 nM |
| Cc1cccc(-c2ccccc2-c2ccc3ncc(NC=O)n3c2)n1 [Compound 28] | 674 nM |
| CNC(=O)c1cnc2ccc(-c3ccccc3-c3cccc(C)n3)cn12 [Compound 3] | 27 nM |
| Cc1cccc(-c2ccc(OCc3ccccc3F)cc2-c2ccc3ncc(C(N)=O)n3c2)n1 [Compound 55] | 13 nM |
| Cc1cccc(-c2ccccc2-c2ccc3ncnn3c2)n1 [Compound 15] | 360 nM |
| Cc1ccnc(-c2ccccc2-c2ccc3ncc(C(N)=O)n3c2)n1 [Compound 42] | 144 nM |
| Cc1cncc(-c2ccccc2-c2ccc3ncc(C(N)=O)n3c2)n1 [Compound 44] | 322 nM |
| Cc1cccc(-c2ccccc2-c2ccc3ncc(C(N)=O)n3n2)n1 [Compound 54] | 98 nM |
| Cc1cccc(-c2ccccc2-c2ccnc3ccc(C(N)=O)cc23)n1 [Compound C-1, reference compound] | > 10000 nM |
| Cc1cccc(-c2ccc(C#N)cc2-c2ccc3ncc(C(N)=O)n3c2)n1 [Compound 25] | 73 nM |
| Cc1cccc(-c2ccccc2-c2ccc3ncc(CN)n3c2)n1 [Compound 4] | 5700 nM |
| COc1cccc(-c2ccccc2-c2ccc3ncc(C(N)=O)n3c2)n1 [Compound 24] | 45 nM |
| Cc1ccn(-c2ccccc2-c2ccc3ncc(C(N)=O)n3c2)n1 [Compound 32] | 339 nM |
| Cc1nc(-c2ccccc2-c2ccc3ncc(C(N)=O)n3c2)cs1 [Compound 27] | 193 nM |
| Cc1cccc(-c2ccccc2-c2ccc3ncc(C(N)=O)nc3c2)n1 [Compound 52] | 415 nM |
| Cc1cccc(-c2ccccc2-c2ccc3ncc(N)n3c2)n1 [Compound 22] | 560 nM |
| Cc1cccc(-c2ccccc2-c2ccc3ncc(C(=O)NC4CC4)n3c2)n1 [Compound 58] | 46 nM |

Continued by falling IC50, values first:

| IC50 | Structure (SMILES) |
| --- | --- |
| 4740 nM | Cc1cccc(-c2ccccc2-c2ccc3nnc(C(N)=O)n3c2)n1 [Compound 18] |
| 2930 nM | Cc1cccc(-c2ccccc2-c2ccc3nc(C)c(C(N)=O)n3c2)n1 [Compound 30] |
| 1300 nM | Cc1cccc(-c2ccccc2-c2ccc3[nH]ncc3c2)n1 [Compound 16] |
| 579 nM | Cc1cccc(-c2ccccc2-c2ccc3ncc(C(=N)N)n3c2)n1 [Compound 35] |
| 237 nM | Cc1nccc(-c2ccccc2-c2ccc3ncc(C(N)=O)n3c2)n1 [Compound 48] |
| 221 nM | Cc1cccc(-c2ccccc2-c2ccc3occ(C(N)=O)c3c2)n1 [Compound 33] |
| 196 nM | Cc1nc(-c2ccccc2-c2ccc3ncc(C(N)=O)n3c2)ccc1Cl [Compound 39] |
| 192 nM | Cc1cccc(-c2ccccc2-c2ccc3ncc(C(=O)O)n3c2)n1 [Compound 1] |
| 145 nM | Cc1cccc(-c2ccccc2-c2ccc3nccn3c2)n1 [Compound 11] |
| 126 nM | Cc1cccc(-c2ccccc2-c2ccc3ncc(C)n3c2)n1 [Compound 31] |
| 126 nM | Cn1ccc(-c2ccccc2-c2ccc3ncc(C(N)=O)n3c2)n1 [Compound 47] |
| 114 nM | Cc1cccc(-c2ccccc2-c2ccc3ncc(C(=O)NC4CCOCC4)n3c2)n1 [Compound 61] |
| 110 nM | Cc1cccc(-c2ccncc2-c2ccc3ncc(C(N)=O)n3c2)n1 [Compound 23] |
| 102 nM | Cc1cccc(-c2ccccc2-c2ccc3nc[nH]c(=O)c3c2)n1 [Compound 49] |
| 82 nM | Cc1cccc(-c2c(F)cccc2-c2ccc3ncc(C(N)=O)n3c2)n1 [Compound 6] |
| 74 nM | Cc1coc(-c2ccccc2-c2ccc3ncc(C(N)=O)n3c2)n1 [Compound 63] |
| 64 nM | Cc1cccc(-c2ccccc2-c2ccc3ncc(C(=O)NCCN4CCOCC4)n3c2)n1 [Compound 60] |
| 63 nM | Cc1cccc(-c2ccc(C(N)=O)cc2-c2ccc3ncc(C(N)=O)n3c2)n1 [Compound 37] |
| 56 nM | Cc1cccc(-c2cc3nccn3cc2-c2ccc3ncc(C(N)=O)n3c2)n1 [Compound 57] |
| 53 nM | Cc1cccc(-c2ccccc2-c2ccn3ncc(C(N)=O)c3c2)n1 [Compound 14] |
| 39 nM | Cc1cccc(-c2ccc(Oc3ccccc3F)cc2-c2ccc3ncc(C(N)=O)n3c2)n1 [Compound 59] |
| 38 nM | COc1ccc(-c2cccc(C)n2)c(-c2ccc3ncc(C(N)=O)n3c2)c1 [Compound 29] |
| 38 nM | Cc1csc(-c2ccccc2-c2ccc3ncc(C(N)=O)n3c2)n1 [Compound 26] |
| 35 nM | Cc1cccc(-c2cc(F)ccc2-c2ccc3ncc(C(N)=O)n3c2)n1 [Compound 10] |
| 18 nM | Cc1nc(-c2ccccc2-c2ccc3ncc(C(N)=O)n3c2)ccc1F [Compound 38] |
| 16 nM | Cc1cccc(-c2ccc(F)cc2-c2ccc3ncc(C(N)=O)n3c2)n1 [Compound 9] |
| 15 nM | NC(=O)c1cnc2ccc(-c3ccccc3-c3cccc(C(F)(F)F)n3)cn12 [Compound 45] |
| 12 nM | Cc1ccc(F)c(-c2ccccc2-c2ccc3ncc(C(N)=O)n3c2)n1 [Compound 40] |
| 6.9 nM | Cc1cccc(-c2cscc2-c2ccc3ncc(C(N)=O)n3c2)n1 [Compound 53] |
